Experimental data taken from the supplement of paper PMC11208160.

Experiment: recombinant barcode read abundance after kanamycin selection (control-corrected) (log10(CPM+1)); higher = more efficient recombination; sequences stand for … in AGTGCAGAGAAAATCGGCCAGTTTTCTCTGCCTGCAGTCCGCATGCCGT…AGATTTATGCAGCGGACTGCCTTTCTCCCAAAGTGATAAACCGGACAGTATCATGGACCGGTTTTCCCGGTAATCCGTATTTGCAAGGTTGGTTTCACT; site = the 11-nt target
Experimental: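 Pooled E. coli target-specificity screen for the IS621 bridge recombinase. Each library plasmid pairs an 11-nt target (CT core) with a bridge RNA whose target-binding loop (9-nt LTG + 4-nt RTG) is reprogrammed; the rest of the 177-nt WT IS621 bridge RNA scaffold is fixed. The plasmid is co-electroporated with a WT donor plasmid; recombinase is induced with 0.1 mM IPTG and recombinants are selected on kanamycin. Recombinant barcodes are sequenced, converted to CPM, averaged over two biological replicates and corrected by the unselected control CPM. Molecule = full bridge RNA written as DNA: LTG = specificity nt 1-9, RTG = reverse complement of specificity nt 8-11, in the WT scaffold.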
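Note: IS621 recombinase and bridge RNA in Escherichia coli cells.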

Sequence | recombinant barcode read abundance (log10)
AAAATCTCTTGGGTTCTAACCTGTTGCCT (site AAAATCTCTAG) | 0.708
AAAATCTCTTGGGTTCTAACCTGTTGCCT (site AAACTCGCTAG) | 0.113
AAACTAGCTTGGGTTCTAACCTGTTGCGG (site AAACTAGCTCC) | 2.27
AAACTAGCTTGGGTTCTAACCTGTTGCGG (site CGTGCGCCTAG) | 0.288
AAACTCGCTTGGGTTCTAACCTGTTGCCT (site AAAATCTCTAG) | 0.322
AAACTCGCTTGGGTTCTAACCTGTTGCCT (site AAACTCGCTAG) | 1.8
AAATGGGCTTGGGTTCTAACCTGTTGCGG (site AAATGGGCTCC) | 2.5
AAATGGGCTTGGGTTCTAACCTGTTGCGG (site AGATGAGCTCC) | 0.166
AACAAGACTTGGGTTCTAACCTGTTGCCT (site AACAAGACTAG) | 1.29
AACAAGACTTGGGTTCTAACCTGTTGCCT (site GTACGACCTGT) | 0.274
AACAATACTTGGGTTCTAACCTGTTGCCT (site AACAATACTAG) | 0.438
AACAATACTTGGGTTCTAACCTGTTGCCT (site CTGTGAGCTCT) | 0.0738
AACACGACTTGGGTTCTAACCTGTTGCCT (site AACACGACTAG) | 0.711
AACACGACTTGGGTTCTAACCTGTTGCCT (site GACAGGACTAG) | 0.165
AACACTGCTTGGGTTCTAACCTGTTGCCT (site AACAATGCTAG) | 0.0705
AACACTGCTTGGGTTCTAACCTGTTGCCT (site AACACTGCTAG) | 1.09
AACACTGCTTGGGTTCTAACCTGTTGCCT (site AACAGTGCTAG) | 0
AACACTGCTTGGGTTCTAACCTGTTGCCT (site AACATTGCTAG) | 0.0625
AACAGTACTTGGGTTCTAACCTGTTGCCT (site AACAGTACTAG) | 0.845
AACAGTACTTGGGTTCTAACCTGTTGCCT (site CACAGTACTAG) | 0.406
AACAGTACTTGGGTTCTAACCTGTTGCCT (site GACAGTACTAG) | 0.129
AACAGTACTTGGGTTCTAACCTGTTGCCT (site TACAGTACTAG) | 0.17

Sequence | recombinant barcode read abundance (log10)
AACATAACTTGGGTTCTAACCTGTTGCGT (site AACATAACTAC) | 1.34
AACATAACTTGGGTTCTAACCTGTTGCGT (site TGTTGTCCTCA) | 0.0331
AACCCTACTTGGGTTCTAACCTGTTGCCT (site AACCCTACTAG) | 0.929
AACCCTACTTGGGTTCTAACCTGTTGCCT (site CACCCTACTAG) | 0.328
AACCCTACTTGGGTTCTAACCTGTTGCCT (site GACCCTACTAG) | 0.0455
AACCCTACTTGGGTTCTAACCTGTTGCCT (site TACCCTACTAG) | 0.193
AACCGCCCTTGGGTTCTAACCTGTTGCCT (site AACCGCCCTAC) | 0.899
AACCGCCCTTGGGTTCTAACCTGTTGCCT (site AACCGCCCTAG) | 0.478
AACGACGCTTGGGTTCTAACCTGTTGCCT (site AACGACGCTAG) | 1.02
AACGACGCTTGGGTTCTAACCTGTTGCCT (site ACCGAGGCTAG) | 0.0126
AACGCCTCTTGGGTTCTAACCTGTTGCCT (site AACGCCTCTAG) | 0.389
AACGCCTCTTGGGTTCTAACCTGTTGCCT (site CACGCCTCTAG) | 0.125
AACGCCTCTTGGGTTCTAACCTGTTGCCT (site GACGCCTCTAG) | 0.178
AACGCCTCTTGGGTTCTAACCTGTTGCCT (site TACGCCTCTAG) | 0.274
AACGTGTCTTGGGTTCTAACCTGTTGCCT (site AAAGTGTCTAG) | 0.375
AACGTGTCTTGGGTTCTAACCTGTTGCCT (site AACGTGTCTAG) | 2.57
AACGTGTCTTGGGTTCTAACCTGTTGCCT (site AAGGTGTCTAG) | 0.103
AACGTGTCTTGGGTTCTAACCTGTTGCCT (site AATGTGTCTAG) | 0.543
AACTGAACTTGGGTTCTAACCTGTTGCCT (site AACTAAACTAG) | 0.18
AACTGAACTTGGGTTCTAACCTGTTGCCT (site AACTCAACTAG) | 0.056
AACTGAACTTGGGTTCTAACCTGTTGCCT (site AACTGAACTAG) | 0.459
AACTGAACTTGGGTTCTAACCTGTTGCCT (site AACTTAACTAG) | 0.0689

Sequence | recombinant barcode read abundance (log10)
AACTTCCCTTGGGTTCTAACCTGTTGCCT (site AACTTCACTAG) | 0.0364
AACTTCCCTTGGGTTCTAACCTGTTGCCT (site AACTTCCCTAG) | 0.315
AACTTCCCTTGGGTTCTAACCTGTTGCCT (site AACTTCGCTAG) | 0.00996
AACTTCCCTTGGGTTCTAACCTGTTGCCT (site AACTTCTCTAG) | 0.0342
AACTTCTCTTGGGTTCTAACCTGTTGCCT (site AACTTCACTAG) | 0.184
AACTTCTCTTGGGTTCTAACCTGTTGCCT (site AACTTCCCTAG) | 0.242
AACTTCTCTTGGGTTCTAACCTGTTGCCT (site AACTTCGCTAG) | 0.0209
AACTTCTCTTGGGTTCTAACCTGTTGCCT (site AACTTCTCTAG) | 0.917
AAGAACACTTGGGTTCTAACCTGTTGCCT (site AAGAACACTAG) | 2.06
AAGAACACTTGGGTTCTAACCTGTTGCCT (site CAGAACACTAG) | 0.46
AAGAACACTTGGGTTCTAACCTGTTGCCT (site GAGAACACTAG) | 0.233
AAGAACACTTGGGTTCTAACCTGTTGCCT (site TAGAACACTAG) | 1.19
AAGAACTCTTGGGTTCTAACCTGTTGCCA (site AAGAACTCTTG) | 1.11
AAGAACTCTTGGGTTCTAACCTGTTGCCA (site GGCGTGCCTAC) | 0.199
AAGACAGCTTGGGTTCTAACCTGTTGCCT (site AAGAAAGCTAG) | 0.403
AAGACAGCTTGGGTTCTAACCTGTTGCCT (site AAGACAGCTAG) | 1.19
AAGACAGCTTGGGTTCTAACCTGTTGCCT (site AAGAGAGCTAG) | 0.0524
AAGACAGCTTGGGTTCTAACCTGTTGCCT (site AAGATAGCTAG) | 0.0189
AAGACCTCTTGGGTTCTAACCTGTTGCTT (site AAGACCTCTAA) | 1.76
AAGACCTCTTGGGTTCTAACCTGTTGCTT (site AAGCCCTCTAA) | 0.139
AAGACCTCTTGGGTTCTAACCTGTTGCTT (site AAGGCCTCTAA) | 0.255
AAGACCTCTTGGGTTCTAACCTGTTGCTT (site AAGTCCTCTAA) | 0.134
